{
  "source": "patent US6365178B1",
  "about": "“Method of making pressure sensitive adhesive matrix patches for transdermal drug delivery using hydrophilic salts of drugs and hydrophobic pressure sensitive adhesive dispersions” (priority 1996, dated 2002)",
  "key": {"[1]": {"assay": "Visual/microscopic observation of matrix films for drug crystals after preparation and on storage (physical stability)", "format": "physicochemical", "conditions": "for Observations: drug crystals: 59 weeks of storage at 40° C./75% RH; for Observations: crystals form within: room temperature", "experimental": "As used herein, “physical stability” of a drug in a matrix patch includes the lack of recrystallization of the drug in the dried adhesive layer of the patch.\nPressure sensitive adhesive matrix systems described herein were prepared as follows. First, the solids content of a water-based or solvent-based adhesive in liquid form was determined by placing a known weight of liquid in a weighed aluminum dish and evaporating the solvents overnight in a 70° C. convection oven. The content of solid adhesive in the liquid was calculated by dividing the adhesive solid weight after drying by the initial total liquid weight. In some cases, the polyisobutylene (PIB) adhesives were prepared from polyisobutylene solids. The solid PIB was first dissolved in heptane to achieve a final solid content of about 30% by weight, and then the exact solid content was determined as described above. Next, a weighed quantity of adhesive liquid was added to a glass bottle, and the solid adhesive weight was calculated from the known solid fraction of the given adhesive liquid. The drug substance (hydrophilic salt or free drug form) was weighed and added to the adhesive solution in a quantity necessary to achieve a selected dry matrix film composition. The liquid containing the adhesive polymer drug substance was then mixed overnight. […] After mixing, approximately 8 ml of the solution was dispensed on a silanized polyester release liner and film cast using a casting knife with a gap size appropriate to achieve a final dried thickness of approximately 0.05-0.1 mm. The cast was dried in a 70° C. convection oven for 15-30 minutes to yield a dried matrix onto which an 0.08 mm thick polyethylene backing film was laminated. These matrix systems were then used to conduct in vitro skin flux experiments as described below. […]\nThe systems manufactured with the salt and the water-based adhesive dispersions were stored at room temperature and examined using optical microscopy at 100× magnification for the presence of drug crystals."}, "[2]": {"assay": "Dissolution of drug substance in liquid adhesive or solvent during matrix preparation", "format": "physicochemical", "conditions": "Example 1, 5% (w/w) in dried film", "experimental": "Pressure sensitive adhesive matrix systems described herein were prepared as follows. First, the solids content of a water-based or solvent-based adhesive in liquid form was determined by placing a known weight of liquid in a weighed aluminum dish and evaporating the solvents overnight in a 70° C. convection oven. The content of solid adhesive in the liquid was calculated by dividing the adhesive solid weight after drying by the initial total liquid weight. In some cases, the polyisobutylene (PIB) adhesives were prepared from polyisobutylene solids. […] Next, a weighed quantity of adhesive liquid was added to a glass bottle, and the solid adhesive weight was calculated from the known solid fraction of the given adhesive liquid. The drug substance (hydrophilic salt or free drug form) was weighed and added to the adhesive solution in a quantity necessary to achieve a selected dry matrix film composition. The liquid containing the adhesive polymer drug substance was then mixed overnight. […] The cast was dried in a 70° C. convection oven for 15-30 minutes to yield a dried matrix onto which an 0.08 mm thick polyethylene backing film was laminated. These matrix systems were then used to conduct in vitro skin flux experiments as described below."}},
  "note": "Counter-ions that a name gives are not always drawn.",
  "data": [
    {"molecule": "CC(C)(C)NCC(O)c1ccc(O)c(CO)c1", "note": "(stereo not drawn) [Albuterol Free Base, albuterol]", "values": [
      {"measurement": "Observations: drug crystals", "setting": "[1]; 10% (w/w) in TSR (organic solvent-based acrylic), microscopic", "result": "Crystals were observed"}
    ]},
    {"molecule": "O=C1CC2(CCCC2)CC(=O)N1CCCCN1CCN(c2ncccn2)CC1", "note": "[Buspirone Free Base, buspirone]", "values": [
      {"measurement": "Observations: crystals form within", "setting": "[1]; 5% (w/w) drug in Lord PIB-500 (water-based PIB) matrix, microscopic", "result": "Crystals form within 3 days"},
      {"measurement": "Observations: crystals form within", "setting": "[1]; 5% (w/w) drug in MA-24 (organic solvent-based PIB) matrix, microscopic", "result": "Crystals form within 11 days"},
      {"measurement": "Drug crystals in dried films", "setting": "[1]; Example 1, organic solvent-based adhesives MA-24, DUROTAK 2979, 5% (w/w)", "result": "visibly homogeneous and free from drug crystals"},
      {"measurement": "Recrystallization of buspirone in laminate", "setting": "[1]; PIB adhesive (MA-24)/buspirone free base/isocetyl alcohol 86/1.5/12.5% (w/w), room temperature and 40° C./70%RH for 3 weeks, microscopic", "result": "No recrystallization of buspirone occurred"},
      {"measurement": "Dissolution in organic solvent-based adhesives", "setting": "[2]; MA-24, DUROTAK 2979", "result": "dissolved readily"},
      {"measurement": "Dissolution in water-based adhesive dispersions", "setting": "[2]; PIB-500, NACOR 72-9965", "result": "water insoluble"}
    ]},
    {"molecule": "Clc1cccc(Cl)c1N=C1NCCN1", "note": "[clonidine HCl]", "values": [
      {"measurement": "Drug crystals in dried matrix", "setting": "[1]; Example 10, water-based PIB 500/BUTYL 100 (Lord), 2% (w/w)", "result": "visibly free of drug crystals"}
    ]},
    {"molecule": "CCN(CC)CC(=O)Nc1c(C)cccc1C", "note": "[lidocaine HCl]", "values": [
      {"measurement": "Drug crystals in dried matrix", "setting": "[1]; Example 9, DURO-TAK 2516, equivalent to 1% (w/w) HCl salt, HCl", "result": "contains visible solid drug crystals"},
      {"measurement": "Drug crystals in dried matrix", "setting": "[1]; Example 9, NACOR 72-9965, 1% (w/w)", "result": "physically stable and free of drug crystals"}
    ]},
    {"molecule": "CCN(CC)CC(=O)Nc1c(C)cccc1C", "note": "[lidocaine free base, lidocaine]", "values": [
      {"measurement": "Drug crystals in dried matrix", "setting": "[1]; Example 9, DURO-TAK 2516, equivalent to 1% (w/w) HCl salt", "result": "visibly free of drug crystals"}
    ]},
    {"molecule": "albuterol sulfate", "values": [
      {"measurement": "Observations: drug crystals", "setting": "[1]; 10% (w/w) in NACOR 9965 (water-based acrylic) with 5% KOLLIDON 90F, microscopic", "result": "No crystals were observed"}
    ]}
  ]
}
